Laboratory results as given in patent publication US20150250210A1, “FLAVOUR ADDITIVES” (MARS INCORPORATED, priority 2012, published 2015).

tested on: T1R1/T1R3 umami receptor; assay: in silico modelling and in vitro screening for binding and activation of the umami receptor; format: cell-based, cat; conditions: feline umami receptor
Method: In vitro screening was carried out in order to establish which amino acids bind and activate the umami receptor.
In vitro screening was carried out in order to establish which nucleotides bind and activate the umami receptor.

Row | SMILES | binding to the feline umami receptor
1 | N[C@@H](CCC(=O)O)C(=O)O [glutamate] | does not bind

same assay, conditions: non-human umami receptor; in silico modelling and in vitro assays

Row | SMILES | ability to bind to and activate the umami receptor
2 | C[C@H](N)C(=O)O [alanine] | able to bind to and activate the umami receptor to different extents
3 | NC(=O)C[C@H](N)C(=O)O [asparagine] | able to bind to and activate the umami receptor to different extents
4 | N[C@@H](CS)C(=O)O [cysteine] | able to bind to and activate the umami receptor to different extents
5 | NCC(=O)O [glycine] | able to bind to and activate the umami receptor to different extents
6 | N[C@@H](Cc1c[nH]cn1)C(=O)O [histidine] | able to bind to and activate the umami receptor to different extents
7 | CC(C)C[C@H](N)C(=O)O [leucine] | able to bind to and activate the umami receptor to different extents
8 | CSCC[C@H](N)C(=O)O [methionine] | able to bind to and activate the umami receptor to different extents
9 | N[C@@H](Cc1ccccc1)C(=O)O [phenylalanine] | able to bind to and activate the umami receptor to different extents
10 | N[C@@H](CO)C(=O)O [serine] | able to bind to and activate the umami receptor to different extents
11 | N[C@@H](Cc1c[nH]c2ccccc12)C(=O)O [tryptophan] | able to bind to and activate the umami receptor to different extents
12 | N[C@@H](Cc1ccc(O)cc1)C(=O)O [tyrosine] | able to bind to and activate the umami receptor to different extents
